Laboratory results as given in paper PMC11062899, “De novo development of small cyclic peptides that are orally bioavailable” (Nature Chemical Biology, 2023).
Where “and” joins values, the source holds several entries; their conditions need not be identical. Equal entries are not always repeated. Where two headings read alike, the source gives them in different places.

Tests used:
[1] = biological target: T1, rat α-thrombin (Rattus norvegicus, UniProt P18292); test: Protease inhibition, Ki for rat α-thrombin (fluorogenic substrate Z-Gly-Gly-Arg-AMC); format: biochemical; conditions: rat alpha thrombin; for Slope normalized to DMSO (proteolytic substrate cleavage over time): replicates R1-R3
T1 construct: rat α-thrombin (Molecular Innovations) were used at final concentrations of 2 nM and 3 nM; purchased Molecular Innovations
Procedure, shortened: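 Ki values come from Cheng–Prusoff correction of IC50, itself fitted by four-parameter logistic regression of activity versus a no-peptide control. Assays used 2 nM human or 3 nM rat thrombin, 50 μM Z-Gly-Gly-Arg-AMC, 30 min kinetic fluorescence at 25 °C.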

[2] = biological target: T2, porcine pepsin (Sus scrofa, UniProt P00791); test: Peptide stability in simulated gastric fluid (SGF); format: in vitro ADME
T2 construct: 0.32 g of porcine pepsin (Sigma-Aldrich, P7125) was dissolved under gentle agitation; purchased Sigma-Aldrich P7125
T2 sequence (P00791 60-385): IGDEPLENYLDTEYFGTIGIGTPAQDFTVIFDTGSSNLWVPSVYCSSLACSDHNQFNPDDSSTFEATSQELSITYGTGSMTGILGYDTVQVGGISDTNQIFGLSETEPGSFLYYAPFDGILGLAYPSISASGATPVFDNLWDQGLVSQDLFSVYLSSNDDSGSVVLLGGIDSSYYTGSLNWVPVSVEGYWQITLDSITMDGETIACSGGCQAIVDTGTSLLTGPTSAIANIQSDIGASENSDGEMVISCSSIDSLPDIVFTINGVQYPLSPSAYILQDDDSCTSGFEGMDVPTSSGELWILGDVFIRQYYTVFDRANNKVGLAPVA
Procedure, shortened: (§1)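 Peptide from a 1 mM DMSO stock was added to fluid pre-warmed at 37 °C. SGF was pH 1.2 NaCl with porcine pepsin (0.32 g per 100 ml), and SIF was pH 6.8 potassium phosphate with porcine pancreatin (1 g per 100 ml). Supernatant peptide was quantified by LC–MS, with residual expressed as T1/T0.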

[3] = Peptide stability in simulated intestinal fluid (SIF); format: in vitro ADME, porcine; conditions: simulated gi fluid; 8 h, 37 °C, pH 6.8; read-out: Proteolytic stability: SIF (8 h) % remaining
Procedure, shortened: as §1

[4] = tested on: porcine pancreatin; test: as above; format: in vitro ADME; conditions: after 8 h vs 0 h (TIC)
Procedure, shortened: as §1

[5] = Metabolic stability in rat liver microsomes (RLMs); conditions: for microsomal CLint / half-life: rat

## O=C1C[C@H]2CCCN2C(=O)[C@H](Cc2ccccc2)NC(=O)[C@@H](NC(=O)c2ccc(Cl)s2)CCSC/C=C/CSCCN1 [compound 34]
[1]; average of R1-R3, read-out: Ki Average, rat alpha thrombin inhibition
  Ki: 6.1 nM
[1]; peptide 1.02E-03 uM
  Slope normalized to DMSO (proteolytic substrate cleavage over time): 78.7 and 76.8 and 72.0
[1]; peptide 1.04E+00 uM
  Slope normalized to DMSO (proteolytic substrate cleavage over time): 7.3 and 7.7 and 6.8
[1]; peptide 1.27E-04 uM
  Slope normalized to DMSO (proteolytic substrate cleavage over time): 95.1 and 95.2 and 91.8
[1]; peptide 1.30E-01 uM
  Slope normalized to DMSO (proteolytic substrate cleavage over time): 20.8 and 21.8 and 17.8
[1]; peptide 1.59E-05 uM
  Slope normalized to DMSO (proteolytic substrate cleavage over time): 100.8 and 100.5 and 95.6
[1]; peptide 1.63E-02 uM
  Slope normalized to DMSO (proteolytic substrate cleavage over time): 48.6 and 45.6 and 41.9
[1]; peptide 1.67E+01 uM
  Slope normalized to DMSO (proteolytic substrate cleavage over time): 5.6 and 6.1 and 3.4
[1]; peptide 2.03E-03 uM
  Slope normalized to DMSO (proteolytic substrate cleavage over time): 77.5 and 75.6 and 71.7
[1]; peptide 2.08E+00 uM
  Slope normalized to DMSO (proteolytic substrate cleavage over time): 5.5 and 7.4 and 5.0
[1]; peptide 2.54E-04 uM
  Slope normalized to DMSO (proteolytic substrate cleavage over time): 90.6 and 89.3 and 85.2
[1]; peptide 2.60E-01 uM
  Slope normalized to DMSO (proteolytic substrate cleavage over time): 14.5 and 13.9 and 10.9
[1]; peptide 3.18E-05 uM
  Slope normalized to DMSO (proteolytic substrate cleavage over time): 98.5 and 99.4 and 94.0
[1]; peptide 3.26E-02 uM
  Slope normalized to DMSO (proteolytic substrate cleavage over time): 34.9 (2×) and 30.9
[1]; peptide 3.33E+01 uM
  Slope normalized to DMSO (proteolytic substrate cleavage over time): 5.6 and 5.2 and 4.6
[1]; peptide 4.07E-03 uM
  Slope normalized to DMSO (proteolytic substrate cleavage over time): 74.5 and 73.2 and 65.7
[1]; peptide 4.17E+00 uM
  Slope normalized to DMSO (proteolytic substrate cleavage over time): 6.0 and 6.5 and 4.6
[1]; peptide 5.09E-04 uM
  Slope normalized to DMSO (proteolytic substrate cleavage over time): 86.5 and 86.6 and 79.6
[1]; peptide 5.21E-01 uM
  Slope normalized to DMSO (proteolytic substrate cleavage over time): 8.9 and 10.7 and 8.6
[1]; peptide 6.36E-05 uM
  Slope normalized to DMSO (proteolytic substrate cleavage over time): 95.0 and 93.8 and 92.2
[1]; peptide 6.51E-02 uM
  Slope normalized to DMSO (proteolytic substrate cleavage over time): 29.2 and 28.9 and 23.7
[1]; peptide 6.67E+01 uM
  Slope normalized to DMSO (proteolytic substrate cleavage over time): 6.0 and 6.3 and 4.0
[1]; peptide 7.95E-06 uM
  Slope normalized to DMSO (proteolytic substrate cleavage over time): 103.6 and 102.5 and 98.1
[1]; peptide 8.14E-03 uM
  Slope normalized to DMSO (proteolytic substrate cleavage over time): 62.2 and 57.8 and 53.3
[1]; peptide 8.33E+00 uM
  Slope normalized to DMSO (proteolytic substrate cleavage over time): 4.9 and 6.7 and 5.0
[1]; single replicates R1-R3, read-out: IC50, rat alpha thrombin inhibition
  IC50: 13 nM and 10.8 nM and 9.19 nM
[1]; single replicates R1-R3, read-out: Ki, rat alpha thrombin inhibition
  Ki: 7.18 nM and 6.01 nM (2×) and 5.09 nM (2×) and 7.19 nM
[2]; after 8 h vs 0 h (TIC), average of R1-R3
  SGF stability, Residual peptide Average: 99.21
[2]; after 8 h vs 0 h (TIC), single replicates R1-R3
  SGF stability, Residual peptide: 107.50 and 92.24 and 97.90
[2]; simulated gi fluid, 8 h, 37 °C, pH 1.2, read-out: Proteolytic stability: SGF (8 h) % remaining
  remaining at 8 h: 99 ± 8%
[3]
  remaining at 8 h: 63 ± 6%
[4]; average of R1-R3
  SIF stability, Residual peptide Average: 62.79
[4]; single replicates R1-R3
  SIF stability, Residual peptide: 66.10 and 55.58 and 66.70
[5]; rat liver microsomes, 0 min, replicate R1
  TIC value of compound, 0 min, R1: 12429096
[5]; rat liver microsomes, 0 min, replicate R3
  TIC value of compound, 0 min, R3: 11063826
[5]; rat liver microsomes, 5 min, replicate R1
  TIC value of compound, 5 min, R1: 11351623
[5]; rat liver microsomes, 5 min, replicate R3
  TIC value of compound, 5 min, R3: 10806046
[5]; rat liver microsomes, 15 min, replicate R1
  TIC value of compound, 15 min, R1: 7245055
[5]; rat liver microsomes, 15 min, replicate R3
  TIC value of compound, 15 min, R3: 6630237
[5]; rat liver microsomes, 30 min, replicate R1
  TIC value of compound, 30 min, R1: 4320756
[5]; rat liver microsomes, 30 min, replicate R3
  TIC value of compound, 30 min, R3: 3830533
[5]; rat liver microsomes, 60 min, replicate R1
  TIC value of compound, 60 min, R1: 1228797
[5]; rat liver microsomes, 60 min, replicate R3
  TIC value of compound, 60 min, R3: 1213522
[5]; CL (ul/min/mg protein), R1, RLM CL, replicate R1, unrounded
  microsomal CLint: 69.7 µL/min/mg
[5]; CL (ul/min/mg protein), R2, RLM CL, replicate R2, unrounded
  microsomal CLint: 85.6 µL/min/mg
[5]; CL (ul/min/mg protein), R3, RLM CL, replicate R3, unrounded
  microsomal CLint: 66.4 µL/min/mg
[5]; Half Life (min), R1, RLM metabolic stability, replicate R1
  half-life: 19.9 min
[5]; Half Life (min), R2, RLM metabolic stability, replicate R2
  half-life: 16.2 min
[5]; Half Life (min), R3, RLM metabolic stability, replicate R3
  half-life: 20.9 min
[5]; microsomes, Metabolic stability: Half life T1/2 (min), RLMs, mean and SD, three measurements
  half-life: 19 ± 2 min
[5]; microsomes, Metabolic stability: RLM CL (ul/min/mg), RLMs, mean and SD, three measurements
  microsomal CLint: 74 ± 8 µL/min/mg
[5]; microsomes, RLM CL, Average, average of R1-R3
  microsomal CLint: 73.9 µL/min/mg
[5]; microsomes, RLM CL, R1, RLM CL, replicate R1, summary block
  microsomal CLint: 69.7 µL/min/mg
[5]; microsomes, RLM CL, R2, RLM CL, replicate R2, summary block
  microsomal CLint: 85.6 µL/min/mg
[5]; microsomes, RLM CL, R3, RLM CL, replicate R3, summary block
  microsomal CLint: 66.4 µL/min/mg
